# From patent US20110136751A1, “Use of Polyphenols in the Treatment of Cancer” (Green Molecular, priority 2009, published 2011)
# Key:
# [1] = system: T-47D; assay: IC50 on cell viability, Cell Counting Kit-8; format: cell-based; conditions: Homo sapiens, T47D; code 4, T-47D, Breast Carcinoma; cell viability 120 h after administration
# Procedure: (§1) A panel of 36 human cell lines were first tested in terms of population doubling time and growth curves to determine the conditions for further assays. The cells were also tested to determine the dose of radiation that produces 50% cell viability (D50). […] Cell viability was determined 120 h after the administration of the compounds using the Cell Counting Kit-8 (Dojindo Molecular Technologies, Inc, Rockville, Md.). In the experiments, 0.1% SDS and 1% DMSO were used as positive and negative controls, respectively. Final concentrations of the compounds used in the experiments are listed below in Table 5: […]
# [2] = system: A-673; assay: IC50 on cell viability, Cell Counting Kit-8; format: cell-based; conditions: Homo sapiens, A673; code 36, A-673, Muscle Rhabdomyosarcoma; cell viability 120 h after administration
# Procedure: as §1
# [3] = system: MEWO; assay: IC50 on cell viability, Cell Counting Kit-8; format: cell-based; conditions: Homo sapiens; code 26, MEWO, Skin Melanoma; cell viability 120 h after administration
# Procedure: as §1
# [4] = system: MML-1; assay: IC50 on cell viability, Cell Counting Kit-8; format: cell-based; conditions: Homo sapiens; code 27, MML-1, Skin Melanoma; cell viability 120 h after administration
# Procedure: as §1
# [5] = system: Panc 10 05; assay: IC50 on cell viability, Cell Counting Kit-8; format: cell-based; conditions: Homo sapiens, Panc1005; code 33, Panc 10 05, Pancreas Adenocarcinoma; cell viability 120 h after administration
# Procedure: as §1
# [6] = system: SW-872; assay: IC50 on cell viability, Cell Counting Kit-8; format: cell-based; conditions: Homo sapiens, SW872; code 18, SW-872, Connective tissue Fibrosarcoma; cell viability 120 h after administration
# Procedure: as §1
# [7] = system: HT-29 xenografts; assay: HT-29 xenograft growth; format: in vivo, nu/nu nude mice; conditions: i.v., 40 mg of t-PTER or QUER/kg×day, single PF
# Procedure: Tumor growth was measured during a 30-day period. Tumor volume, one week after inoculation and before PF administration, was of 56+15 mm3. A. […] B. Growth profile of control ([…]) and t-PTER- and QUER (∘) (20 mg of each PF/kg)-treated HT-29-bearing mice. Data are means±S.D. of 18-20 mice per group. The significant test refers, for all groups, to the comparison between PTER and/or QUER and controls (treated with physiological saline) (*P<0.01). For HT-29 cancer cell xenograft experiments, female nu/nu nude mice (ages 6 to 8 weeks; […] Tumor volume was calculated based on two dimensions, measured using calipers, and was expressed in cubic millimeters according to the formula: […] For histological analysis the surgical and xenograft tissue samples were fixed in 4% formaldehyde, paraffin embedded, and stained with hematoxilin & eosin and safran. […] This study was conducted in compliance with international laws and policies (EEC Directive 86/609, OJ L 358. 1, Dec. 12, 1987; and NIH Guide for the Care and Use of Laboratory Animals, NIH Publ. No. 85-23, 1985). X rays were administered using a […] SL75 linear accelerator from Philips. For this purpose each mouse was anesthetized with nembutal (50 mg/kg i.p.), and fixed on a Perspex platform.
# [8] = system: Human melanoma (A375), breast cancer (MCF7), lung cancer (A549), and colon cancer (HT29) cell lines; assay: Apoptosis induction (flow cytometry); format: cell-based; conditions: with increasing concentration
# Procedure: The aim of this study was to determine whether pterostilbene causes cytotoxicity in human tumors at concentrations that are reliable under in vivo conditions; and, to identify which death-related molecular mechanisms may be activated by the compound. Human melanoma (A375), breast cancer (MCF7), lung cancer (A549), and colon cancer (HT29) cell lines were used in this set of experiments. […] Cell cycle and apoptosis induction were determined by flow cytometry. […] The tumor cell death induced by pterostilbene appears to be partially independent of caspase activity.
# [9] = cited from earlier work
# [10] = system: Human melanoma (A375), breast cancer (MCF7), lung cancer (A549), and colon cancer (HT29) cell lines; assay: Cell inhibition study (cell counting); format: cell-based; conditions: for cell number (relative proliferation index): 0-100 μM, FIGS. 8A through 8D; for IC50: Homo sapiens, all cell lines (A375, MCF7, A549, HT29)
# Procedure: (§2) Cancer cells (0.2×10^6 cells/well) were seeded in six well-plates and, 24 h later, were treated with PTER or RES (0-100 mM) (ethanol as solvent vehicle was at a conc. of 0.3%). Cell growth was analyzed using the Countess® Automated Cell Counter (Invitrogen). Results were expressed as relative proliferation index±SD (n=4) where control is 100.
# (§3) The aim of this study was to determine whether pterostilbene causes cytotoxicity in human tumors at concentrations that are reliable under in vivo conditions; and, to identify which death-related molecular mechanisms may be activated by the compound. Human melanoma (A375), breast cancer (MCF7), lung cancer (A549), and colon cancer (HT29) cell lines were used in this set of experiments. Pterostilbene and resveratrol were used in a μM range, between 10 μM (below the IC50 for all cell lines) and 200 μM (an unachievable in vivo concentration). Cell cycle and apoptosis induction were determined by flow cytometry.
# as §2, with “Cells from the cancer lines” for “Cancer cells”, “pterostilbene” for “PTER”, “resveratrol” for “RES”, “μM)” for “mM)”
# [11] = system: caspase 3; assay: Caspase-3 activity (Apo-ONE Homogeneous Caspase-3 Assay); format: cell-based, human; conditions: within a 24 h-period
# Procedure: Aspase-3 activity was measured with Apo-ONE® Homogeneous Caspase-3 Assay (Promega). The assay was configured for 96 well plates (5000 cells/well). Cells were plated for 24 h. Capase-3/7 activities were evaluated 24 h after polyphenols addition. Fluorescence (a.u.) was expressed as relative index where control is 1. Results are expressed as relative proliferation index±SD (n=3).
# (§4) The effects of pterostilbene and resveratrol on cell cycle were tested. […] Both DNA synthesis and tubulin polymerization were seriously affected.
# [12] = system: Human melanoma (A375), breast cancer (MCF7), lung cancer (A549), and colon cancer (HT29) cell lines; assay: Cell cycle study (flow cytometry); format: cell-based; conditions: treated for 24 h; FIG. 9
# Procedure: Cancer cells (0.2×10^6 cells/well) were seeded in six well-plates and, 24 h later, were treated for 24 h with different concentrations ([…]) of PTER or ReES. Cells were trypsinized and pelleted at 1000×g for 2 min. Cells were resuspended in PBS. Ethanol was added up to a final 70% conc. The DNA cellular content was analyzed by flow cytometry (10000 cell events were collected per sample). Results are expressed as % of total cells±SD (n=3).
# as §3, §4
IC50 [1] [µM],IC50 [5] [µM],IC50 [6] [µM],IC50 [10] [µM],caspase 3 activation [11],SMILES,IC50 [2] [µM],IC50 [3] [µM],IC50 [4] [µM],CRC growth inhibition compared with the 20 mg/kg×day dose [7],apoptosis [8],half-life in circulating blood ([9]; after i.v. administration of 20 mg/kg to e.g. rabbits) [min],cell number (relative proliferation index) [10],cell cycle [12],"half-life in blood ([9]; rabbit, in vivo) [min]",inhibitory effect on human tumor cell growth versus resveratrol [10]
10.7,23,3.51,–,–,"O=c1c(O)c(-c2ccc(O)c(O)c2)oc2cc(O)cc(O)c12 [QUER, quercetin]",4.09,8.59,10.8,not significantly different,–,–,–,–,–,–
25.6,24.2,81.1,> 10,no caspase 3 activation was detected,"Oc1ccc(/C=C/c2cc(O)cc(O)c2)cc1 [RI, trans-3,5,4′-trihydroxystilbene, reference compound]",6.73,17.1,10.3,–,progressively activated,~14.4,reduced cell number in a concentration- and time-dependent manner,arrested in S phase,–,–
35,46.3,25.8,> 10,no caspase 3 activation was detected,"COc1cc(/C=C/c2ccc(O)cc2)cc(OC)c1 [t-PTER, trans-3,5-dimethoxy-4′-hydroxystilbene]",5.8,39,16.9,not significantly different,progressively activated,–,reduced cell number in a concentration- and time-dependent manner,arrested in S phase,~77.9,stronger inhibitory effect
